Reference: paper PMC4000412, “Novel LHRH-receptor-targeted cytolytic peptide, EP-100: first-in-human phase I study in patients with advanced LHRH-receptor-expressing solid tumors” (Cancer Chemotherapy and Pharmacology, 2014)
“Also recorded” adds a separate entry of the source. Read-outs that look alike come from different tables or passages of the source. Peptide text beside a SMILES is read from it.

Assays:
[1] = system: advanced LHRH-receptor-expressing solid tumors; test: Antitumor activity by RECIST version 1.1, tumor biomarkers and CTC; format: in vivo, human
Method: A history and physical examination were conducted pre-study and before every cycle. A complete blood count, serum electrolytes and chemistries were evaluated pre-study and then weekly. Tumor response or progression was assessed by imaging studies at baseline and after every 2 cycles. RECIST version 1.1 criteria were used to assess response.
(§1) FSH and LH levels as well as testosterone in men and estradiol levels in women were obtained on Days 1, 8, 15 and 22 within 24 h prior to dosing. Testosterone and estradiol levels were measured on Day 1 only after Cycle 1 and at off study assessment. Blood was collected for circulating tumor cells (CTC) prior to dosing on Day 1 of the first cycle. Patients with positive CTC at baseline also had blood collected for CTC analysis prior to dosing on Day 1 of each subsequent cycle. Additional studies included plasma cortisol, adrenocorticotropin (ACTH), thyroxine (T4) and thyroid-stimulating hormone (TSH) and blood for tumor specific biomarker analysis (at investigator’s discretion), all obtained prior to Day 1 dosing with each cycle and at off study assessment. Samples for antidrug antibodies (ADA) were collected on Day 1 of Cycle 1 and then on Day 1 of every odd cycle.

[2] = system: human cancer cell lines expressing the LHRH receptor; settings: cited from earlier work
Excerpt: EP-100 is a synthetic 28 amino acid consisting of the LHRH natural ligand joined to an 18 amino acid cationic α-helical lytic peptide (CLIP-71) without a linker. LHRH delivers the lytic peptide to cancer cells via specific binding to cell-surface LHRH receptors. Although EP-100’s exact mechanism of action has not yet been resolved, cancer cell membrane surface characteristics are believed to play a critical role.

[3] = system: pituitary gonadotropes (LHRH receptors); test: Pharmacodynamics: serum FSH, LH and other pituitary hormones in patients; format: in vivo, human
Method: as §1

[4] = Plasma pharmacokinetics of EP-100 after IV infusion (phase I); format: in vivo, human; settings: for time at which C max was reached: majority of patients
Method: Blood samples (approximately 5 mL) were collected on Cycle 1 Day 1 at the following times: pre-dose, 10 and 20 min after start of EP-100 infusion, prior to completion of the infusion (−3 min) and 2, 15, 30, 60 (±2), 120 (±2) and 240 (±5) min after the infusion. Concentrations of EP-100 in EDTA-anticoagulated plasma were assayed by a validated HPLC-Mass Spectrometry method developed at Covance (Indianapolis, IN). EP-100 and the internal standard were extracted from human plasma by solid-phase extraction and analyzed using liquid chromatography with tandem mass spectrometric detection (MS/MS). The lower limit of quantitation for EP-100 in human plasma was 0.025 μg/mL, with linearity demonstrable to 5 μg/mL (upper limit of quantitation). Plasma PK analysis for EP-100 was performed using non-compartmental methods with Phoenix™ WinNonlin® version 6.1 or higher (Pharsight Corp., Mountain View, CA). Concentration–time profiles were constructed from the plasma sample data. Estimates of the area under the plasma concentration time curve (AUC) and slope of the terminal decay phase were used to calculate values of the following pharmacokinetic parameters: apparent terminal phase half-life (t 1/2), total body clearance (CL), apparent time of maximum concentration (T max) and apparent volume of distribution (V z). Means and standard deviations are presented where applicable. Phoenix™ WinNonlin® was used to identify the terminal linear phase of the concentration–time profile. The number of points chosen was determined based on the largest regression coefficient, R ^2, obtained. A minimum of three data points was used for determination of λ z, the elimination rate constant, determined by the slope of the terminal linear phase. The R ^2 had to be ≥0.8 to be included in the pharmacokinetic results. Summary statistics were prepared using Microsoft Excel 2007, and graphics were prepared with SigmaPlot™ version 11.2 (Systat Software Inc., Richmond, CA).

[5] = cited from earlier work; for histamine release (clinical signs: swelling, redness or raised areas): pre-clinical studies; for well tolerated dose (as high as): repeated dose, ref Esperance data on file
Method: Clinical signs of histamine release were eliminated in a female dog and lessened in a male dog when diphenhydramine was administered. Therefore, histamine release may cause IRDRs, but it remains unclear how EP-100 triggers IRDRs in humans and why the reaction is seen in skin only. Among patients experiencing IRDRs, hematolo ...

[6] = system: LHRH-receptor-positive cell lines; settings: in vitro; cited from earlier work
Excerpt: (§2) A phase 2 clinical trial te ...

breast cancer model = settings: in vivo breast cancer model; ref Esperance, data on file; cited from earlier work
Excerpt: as §2

[7] = ref Esperance data on file, cited from earlier work
Method: A conservative first-in-human starting dose of 0.6 mg/m^2 was chosen, based on the repeat-dose toxicity studies in dogs (which appeared to be the most sensitive species). The initial dose schedule of one 30 min infusion weekly was pre ...

SMILES: CC(C)C[C@H](NC(=O)CNC(=O)[C@H](Cc1ccc(O)cc1)NC(=O)[C@H](CO)NC(=O)[C@H](Cc1c[nH]c2ccccc12)NC(=O)[C@H](Cc1c[nH]cn1)NC(=O)[C@@H]1CCC(=O)N1)C(=O)N[C@@H](CCCNC(=N)N)C(=O)N1CCC[C@H]1C(=O)NCC(=O)N[C@@H](CCCCN)C(=O)N[C@@H](Cc1ccccc1)C(=O)N[C@@H](C)C(=O)N[C@@H](CCCCN)C(=O)N[C@@H](Cc1ccccc1)C(=O)N[C@@H](C)C(=O)N[C@@H](CCCCN)C(=O)N[C@@H](CCCCN)C(=O)N[C@@H](Cc1ccccc1)C(=O)N[C@@H](C)C(=O)N[C@@H](CCCCN)C(=O)N[C@@H](Cc1ccccc1)C(=O)N[C@@H](C)C(=O)N[C@@H](CCCCN)C(=O)N[C@@H](CCCCN)C(=O)N[C@@H](Cc1ccccc1)C(=O)N[C@@H](C)C(=O)N[C@@H](CCCCN)C(=O)O [EP-100] (HELM PEPTIDE1{[Glp].H.W.S.Y.G.L.R.P.G.K.F.A.K.F.A.K.K.F.A.K.F.A.K.K.F.A.K}$$$$V2.0; C-terminus assumed)
- objective tumor responses (RECIST version 1.1) ([1]; 37 patients, EP-100 single agent): No complete or partial tumor responses; also recorded: No objective tumor responses
- treatment-related change in tumor biomarkers (CA-125 or PSA) or CTC values ([1]; patients): no treatment-related decreases
- clinical benefit: patients with stable disease for 16 weeks or longer ([1]; seven of 37 patients, EP-100 single agent): 19%
- release of cell-death proteases from cells ([2]; in vitro, low micromolar concentrations): released from cells within minutes
- incubation time to complete cell lysis ([2]; in vitro): 1 h
- in vitro activity level ([2]; various human cancer cell lines from solid tumors and hematological malignancies expressing the LHRH receptor, ref Esperance data on file, 37): sub-micromolar
- reduction from baseline FSH ([3]; one breast cancer patient, dose level 7.8 mg/m^2, FSH 127–15 U/L): 88%
- LH reduction ([3]; one breast cancer patient, dose level 7.8 mg/m^2, LH 24–1 U/L): 96%
- effect on other pituitary hormones (ACTH and TSH) ([3]; patients): not affected
- FSH decrease ([3]; second breast cancer patient, 11.7 mg/m^2, FSH 21–4 U/L): 81%
- FSH decrease ([3]; third breast cancer patient, 26 mg/m^2, FSH 27–4 U/L): 85%
- LH decrease ([3]; third breast cancer patient, 26 mg/m^2, LH 27–1.3 U/L): 95%
- patients with sustained decreases in LH and FSH ([3]; three patients of 37, dose levels 11.7 and 26 mg/m^2, all breast cancer): 8%
- increase in C max with dose ([4]; 0.6-40 mg/m^2, data highly variable): slightly greater than dose proportional
- time at which C max was reached ([4]; EP-100 given over 30 min IV): 20 to 40 min
- time at which C max was reached ([4]; EP-100 given over 60 min IV): 40 to 60 min
- plasma concentrations versus concentrations active in vitro ([4]; doses of 5.2 mg/m^2 and above): reached the predicted “therapeutic” concentrations
- volume of distribution, V z ([4]; doses of 7.8 to 17 mg/m2 IV): 2,400 to 2,666 mL
- clearance ([4]; human, plasma, 0.6 mg/m2, dose 0.6 mg/m^2 IV): 299 mL/min
- Vd ([4]; human, plasma, 0.6 mg/m2, dose 0.6 mg/m^2 IV, read-out: volume of distribution, V z): 4.35 L
- clearance ([4]; human, plasma, 5.2 mg/m2, dose 5.2 mg/m^2 IV): 143 mL/min
- Vd ([4]; human, plasma, 5.2 mg/m2, dose 5.2 mg/m^2 IV, read-out: volume of distribution, V z): 1.56 L
- clearance ([4]; human, plasma, 7.8 mg/m2, dose 7.8 mg/m^2 IV): 223 mL/min
- clearance ([4]; human, plasma, 11.7 mg/m2, dose 11.7 mg/m^2 IV): 222 mL/min
- clearance ([4]; human, plasma, 17 mg/m2, dose 17 mg/m^2 IV): 110 mL/min
- AUC(0-inf) ([4]; human, plasma, 40 mg/m2, highest dose level tested (40 mg/m^2), IV infusion, mean ± SD, read-out: mean AUC0–∞ (converted)): 5430 ng·h/mL
- Cmax ([4]; human, plasma, 40 mg/m2, highest dose level tested (40 mg/m^2), IV infusion, mean ± SD, read-out: mean C max): 4760 ng/mL
- half-life ([4]; human, plasma, 40 mg/m2, patients, IV infusion, highest dose tested (40 mg/m^2), read-out: terminal half-life): ~15 min
- Vd ([4]; human, plasma, doses of 7.8 to 17 mg/m2 IV, read-out: volume of distribution, V z per body weight): ~0.06 L/kg
- histamine release (clinical signs: swelling, redness or raised areas) ([5]; beagle dogs): may trigger histamine release
- histamine release (clinical signs: swelling, redness or raised areas) ([5]; mice): may trigger histamine release
- well tolerated dose (as high as) ([5]; dogs): 2.0 mg/kg
- well tolerated dose (as high as) ([5]; mice): 2.0 mg/kg
- effect of combination with pgp substrates (doxorubicin, paclitaxel, vinorelbine, vincristine) and non-pgp substrates (cisplatinum, 5-fluorouracil) [6]: reversion of drug resistance and potentiation of toxicity
- tolerability of combination EP-100 with paclitaxel (breast cancer model): well tolerated
- highest non-severely toxic dose ([7]; repeat-dose animal studies): 2.0 mg/kg/dose
- pharmacologic effect on pituitary LH and FSH ([7]; some animals, with reduction in uterine and epididymal weights): reduction in pituitary production
